Measurements published in US20230172831A1, “COSMETIC” (SHIN-ETSU CHEMICAL CO., LTD., priority 2020, published 2023).
Where two headings read alike, the source gives them in different places.

What was measured:
[1] = Solubility of oily component solid at 25° C. and crystallization test (stearyl alcohol); assay type: physicochemical; parameters: key to dissolution state: excellent: “Excellent” indicates uniform dissolution; “good” indicates dispersion; “poor” indicates separation; conditions: for average penetration score: Stearyl alcohol:silicone 1:9, solidified at 25° C. for 2 days, 1/4 cone, after 5 seconds, average of five, larger value means softer; for dissolution state: Stearyl alcohol:silicone mass ratio 1:9, heated at 105° C. for 20 minutes, visual observation
Experimental: (§1) Oily components being solid at 25° C. and silicones weighed at a mass ratio of 1:9 were heated at 105° C. for 20 minutes to observe the dissolution state. Then, each heated mixture solution was placed in an aluminum cup, allowed to stand at 25° C. for 2 days, and solidified. The penetration score of the solid was measured with a rheometer. The dissolution states according to the visual observation during the heating were shown as follows. “Excellent” indicates uniform dissolution, “good” indicates dispersion, and “poor” indicates separation.
(§2) Moreover, in the rheometer measurement, an automatic cone-penetration measurement test apparatus RPM-101 (manufactured by RIGOSHA CO., LTD.) was used, a ¼ cone was set, and a penetration score after 5 seconds was measured five times. […] A larger value means a softer material.

[2] = Solubility of oily component solid at 25° C. and crystallization test (polyethylene); assay type: physicochemical; parameters: key to dissolution state: excellent: “Excellent” indicates uniform dissolution; “good” indicates dispersion; “poor” indicates separation; conditions: for average penetration score: Polyethylene:silicone 1:9, solidified at 25° C. for 2 days, 1/4 cone, after 5 seconds, average of five, larger value means softer; for dissolution state: Polyethylene:silicone mass ratio 1:9, heated at 105° C. for 20 minutes, visual observation
Experimental: as §1, §2

[3] = Viscosity (kinematic viscosity, Ostwald viscometer); assay type: physicochemical
Experimental: Further, since the viscosity of the organosiloxane in the present invention is less than 5 mm^2/s (25° C.), favorable applicability and spreadability are sensed in the same manner as in cases of using decamethylcyclopentasiloxane having a viscosity of 4 mm^2/s (25° C.), or the like. Additionally, the feeling on use is favorable without provoking considerable sticky feeling. If the viscosity is 5 mm^2/s (25° C.) or higher, this causes poor spreading, sticky feeling is provoked, and the feeling on use is poor. Note that the viscosity (kinematic viscosity) values are measured using an Ostwald viscometer.
(§3) A 1-L four-necked flask was charged with 282.6 g of 1,1,1,3,5,7,7,7-octamethyltetrasiloxane and 1.4 mg of chloroplatinic acid. An ethylene gas was blown into the mixture under stirring, and a hydrosilylation reaction took place while the temperature was held at […]. The reaction was monitored by gas chromatography. When it was observed that the proportion of a target reached 95% or more, the reaction was terminated. Distillation under reduced pressure (120° C., 10 mmHg) was performed to obtain 3,5-diethyl-1,1,1,3,5,7,7,7-octamethyltetrasiloxane as the target. The boiling point was 227° C. and the viscosity was 2.2 mm^2/s.

[4] = assay type: physicochemical
Experimental: as §3

[5] = Solubility test of ethylhexyl methoxycinnamate in silicones; assay type: physicochemical; parameters: key to dissolution state: “good” indicates dissolution; “poor” indicates separation; conditions: for dissolution state: shaken 24 hours, observed after 12 days at room temperature
Experimental: Ethylhexyl methoxycinnamate (sometimes referred to as OMC) and each silicone (sometimes referred to as Sx) weighed at a mass ratio shown in Table 1 were shaken and mixed at room temperature for 24 hours. After 12 days at room temperature, the dissolution state was observed. For each dissolution state, “good” indicates dissolution, and “poor” indicates separation.

[6] = known value given for comparison; cited from earlier work

In the case of `CC[Si](C)(O[Si](C)(C)C)O[Si](C)(CC)O[Si](C)(C)C` (centres unmarked) [Sx of Production Example 1, 3,5-Diethyl-1,1,1,3,5,7,7,7-octamethyltetrasiloxane], the average penetration score [1] was 49.5, the dissolution state [1] was “excellent” and the average penetration score [2] was 33.7. The dissolution state [2] was “excellent”, the viscosity [3] was 2.2 mm^2/s and the boiling point [4] was 227 °C. The dissolution state ([5]; Ratio of OMC:Sx 1:1 (mass)) was “good”, the dissolution state ([5]; Ratio of OMC:Sx 4:6 (mass)) was “good” and the “Dissolution of ethylhexyl methoxycinnamate compared with other silicones” value ([5]; versus KF-96L-1cs, KF-96L-1.5cs, KF-96L-2cs, TMF-1.5, KF-995, D6) was “dissolved ethylhexyl methoxycinnamate to higher extent”.
With undecamethylpentasiloxane [KF-96L-2cs] the average penetration score [1] was 34.6, the dissolution state [1] was “excellent” and the average penetration score [2] was 18.6. The dissolution state [2] was “Poor” and the dissolution state ([5]; Ratio of OMC:Sx 1:1 (mass)) was “poor”.
In the case of `C[Si]1(C)O[Si](C)(C)O[Si](C)(C)O[Si](C)(C)O[Si](C)(C)O1` [D5:KF-995, decamethylpentasiloxane], the average penetration score [1] is listed as 34.4, the boiling point [6] is listed as 210 °C and the average penetration score [2] is listed as 22.4.
For `C[Si](C)(C)O[Si](C)(C)O[Si](C)(C)C` [KF-96L-1cs, octamethyltrisiloxane], the average penetration score [1] was 31.7, the dissolution state [1] was “excellent” and the average penetration score [2] was 30.7. The dissolution state [2] was “good” and the dissolution state ([5]; Ratio of OMC:Sx 1:1 (mass)) was “poor”.
In the case of `C[Si]1(C)O[Si](C)(C)O[Si](C)(C)O[Si](C)(C)O[Si](C)(C)O[Si](C)(C)O1` [Example D6, dodecamethylhexasiloxane], the average penetration score [1] is listed as 31.5, the boiling point [6] is listed as 245 °C and the average penetration score [2] is listed as 21.0.
With `C[Si](C)(C)O[Si](C)(C)O[Si](C)(C)O[Si](C)(C)C` [KF-96L-1.5cs, decamethyltetrasiloxane] the dissolution state ([5]; Ratio of OMC:Sx 1:1 (mass)) was “poor”.
